Test results taken from publication PMC12386283, “Elucidating the Complex Structural and Molecular Mechanisms Driving P-Glycoprotein-Mediated Transport of Cardiac Glycosides” (International Journal of Molecular Sciences, 2025).
“And” between values parts separate entries of the source, which are not always exact repeats. Equal values may be shown once. Read-outs that look alike come from different tables or passages of the source.

What was measured:
[1] = test system: Pgp mutants F336A and I340A; settings: cited from earlier work
[2] = molecular target: wild-type mouse Pgp (MDR3) (Mus musculus, UniProt P21447); experiment: Pgp-mediated ATPase activity (Chifflet colorimetric Pi assay, proteoliposomes)
Chain of wild-type mouse Pgp (MDR3) (P21447 whole entry): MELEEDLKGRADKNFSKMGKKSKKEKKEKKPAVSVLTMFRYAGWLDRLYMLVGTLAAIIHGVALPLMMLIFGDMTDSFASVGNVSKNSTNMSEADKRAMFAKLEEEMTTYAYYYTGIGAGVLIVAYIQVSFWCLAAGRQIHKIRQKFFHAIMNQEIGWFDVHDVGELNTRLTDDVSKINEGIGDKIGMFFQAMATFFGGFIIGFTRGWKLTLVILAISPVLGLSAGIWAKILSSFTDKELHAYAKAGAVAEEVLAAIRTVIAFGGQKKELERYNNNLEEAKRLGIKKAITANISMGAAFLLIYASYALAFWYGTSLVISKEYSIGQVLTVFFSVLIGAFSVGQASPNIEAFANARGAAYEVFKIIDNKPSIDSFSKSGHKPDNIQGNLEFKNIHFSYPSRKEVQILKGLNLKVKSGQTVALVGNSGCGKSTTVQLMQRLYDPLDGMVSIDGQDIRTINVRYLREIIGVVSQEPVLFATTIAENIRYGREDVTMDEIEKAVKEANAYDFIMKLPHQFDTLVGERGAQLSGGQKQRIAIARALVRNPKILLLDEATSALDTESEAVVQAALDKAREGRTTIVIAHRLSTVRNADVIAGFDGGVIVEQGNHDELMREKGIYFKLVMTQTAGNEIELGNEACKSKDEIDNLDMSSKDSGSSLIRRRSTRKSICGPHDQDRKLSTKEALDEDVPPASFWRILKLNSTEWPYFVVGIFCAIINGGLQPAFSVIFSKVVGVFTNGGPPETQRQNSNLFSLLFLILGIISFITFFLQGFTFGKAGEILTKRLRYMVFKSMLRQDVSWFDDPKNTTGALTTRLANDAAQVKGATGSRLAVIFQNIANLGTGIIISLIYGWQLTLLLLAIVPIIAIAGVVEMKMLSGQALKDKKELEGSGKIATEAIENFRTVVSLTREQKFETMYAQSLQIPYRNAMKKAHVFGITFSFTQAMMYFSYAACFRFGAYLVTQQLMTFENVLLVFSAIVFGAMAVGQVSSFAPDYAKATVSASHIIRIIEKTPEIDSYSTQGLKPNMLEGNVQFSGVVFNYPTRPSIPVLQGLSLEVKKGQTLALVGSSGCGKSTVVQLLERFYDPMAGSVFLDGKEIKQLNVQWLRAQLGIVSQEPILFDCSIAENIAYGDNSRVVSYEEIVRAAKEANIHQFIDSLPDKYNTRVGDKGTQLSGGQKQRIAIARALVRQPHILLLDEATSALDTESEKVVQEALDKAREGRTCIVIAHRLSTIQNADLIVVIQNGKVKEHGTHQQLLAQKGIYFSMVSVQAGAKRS
Procedure: (§1) Overexpression of wild-type mouse Pgp (MDR3) was achieved by using genetically engineered strains of Pichia pastoris with a 6X histidine tag. The cells were cultured in glycerol media, and methanol was used to induce the overexpression of Pgp at the Bioexpression and Fermentation Facility (BFF), University of Georgia, Athens, GA, USA. A repeated cycle of freezing using liquid nitrogen, blending, and thawing was used to lyse the Pgp-expressing P. pastoris cells. The protein was purified using affinity chromatography with nickel-nitrilotriacetic acid (Ni-NTA) resin (Thermo Fisher Scientific, Waltham, MA, USA). DDM was used to solubilize the protein, and the solution was concentrated using Amicon Ultra-15 100 kDa cut-off filters (EMD Millipore, Billerica, MA, USA). […] The purified DDM-solubilized Pgp was aliquoted and stored at −80 °C for future analysis.
(§2) Pgp was reconstituted into liposomes as previously described. Briefly, liposomes comprising 80% (w/v) Avanti Escherichia coli total lipid extract and 20% (w/v) cholesterol were dissolved in chloroform to achieve a final concentration of 10 mg mL^−1, and the volume was adjusted to 10 mL. […] The solution was subjected to ten cycles of freeze–thaw using liquid nitrogen and a water bath (67 °C), resulting in the formation of liposomes with varying sizes, and extruded eleven times in a LIPEX extruder (Northern Lipids, Burnaby, BC, Canada) to produce identical-sized liposomes, using a 400 nm cut-off filter.
(§3) Approximately 40 µL of DDM-solubilized Pgp was dialyzed for two hours against HEPES buffer (20 mM HEPES, 100 mM NaCl, 5 mM MgCl2, 2 mM DTT, pH 7.4) to remove any remnants of the detergent, DDM. The dialyzed protein was mixed with 4 mg mL^−1 of the extruded liposomes and incubated on ice for at least one hour to allow Pgp to integrate into the liposomes. To remove any additional detergent and further facilitate Pgp integration into the liposome, the solution was dialyzed for a second time for two hours in HEPES buffer to form proteoliposomes, and the concentration of Pgp reconstituted in liposomes was determined using the Bio-Rad DC Protein assay. Finally, the solution was aliquoted and stored at −80 °C for future use.
(§4) The Chifflet method is a colorimetric method that measures the amount of free inorganic phosphate (Pi) through the formation of ammonium molybdate and Pi complex, which produces a strong absorbance at 850 nm. The absorbance was measured on a 96-well plate using a CLARIOstar microplate reader (BMG Labtech, Ortenberg, Germany). […] The final concentrations of the proteoliposome and ATP were maintained at 50 nM and 3.2 mM, respectively. Orthovanadate was used as a control and run in parallel to the samples. Finally, the kinetic curves for ATPase activity were fit to a modified Michaelis-Menten equation (Equation (1)). Igor 6.2 Pro software (Wavemetrics, Tigard, OR, USA) was used for data analysis.(1) V=VmaxS/Km+S+Vbasal where V = Rate of ATP hydrolysis; Vmax = Maximum velocity of ATP hydrolysis; [S] = Substrate concentration; Km = Michaelis–Menten constant; and Vbasal = basal ATPase activity.

Pgp [3] = settings: CLEFF9 cells, cited from earlier work
Pgp [4] = settings: MDCK cell lines overexpressing Pgp; cited from earlier work
[5] = molecular target: T1, P-glycoprotein (wild-type mouse Pgp, MDR3) (Mus musculus, UniProt P21447); experiment: in vitro; settings: mouse, pH 7.4
T1 sequence (P21447 whole entry): as above
Procedure: as §1, §2, §3, §4

[6] = molecular target: T1, P-glycoprotein (wild-type mouse Pgp, MDR3); experiment: in vitro; settings: mouse, pH 7.4; remark: listed apart in the source
Procedure: Overexpression of wild-type mouse Pgp (MDR3) was achieved by using genetically engineered strains of Pichia pastoris with a 6X histidine tag. The cells were cultured in glycerol media, and methanol was used to induce the overexpression of Pgp at the Bioexpression and Fermentation Facility (BFF), University of Georgia, Athens, GA, USA. A repeated cycle of freezing using liquid nitrogen, blending, and thawing was used to lyse the Pgp-expressing P. pastoris cells. The protein was purified using affinity chromatography with nickel-nitrilotriacetic acid (Ni-NTA) resin (Thermo Fisher Scientific, Waltham, MA, USA). DDM was used to solubilize the protein, and the solution was concentrated using Amicon Ultra-15 100 kDa cut-off filters (EMD Millipore, Billerica, MA, USA). The concentration of purified protein was measured at 280 nm using a calculated extinction coefficient of 1.28 per mg mL^−1 on a Nanodrop (DeNovix, Wilmington, DE, USA). […] The purified DDM-solubilized Pgp was aliquoted and stored at −80 °C for future analysis.
as §3
The intrinsic tryptophan residues in the protein can be selectively excited and emitted at 295 nm and 330 nm wavelengths, respectively. The binding of the drug to the protein can alter the spatial arrangement encountered by the tryptophan residue(s) and thereby regulate the fluorescence intensity of the protein [52]. […] Proteoliposomes diluted to 1 µM in Chifflet buffer containing 2 mM DTT were titrated against varying concentrations of drugs. The intrinsic protein fluorescence was measured at 330 nm upon excitation at 295 nm using an Olis DM 45 spectrophotometer (Olis Corporation, Bogart, GA, USA). To nullify the effect of Rayleigh bands on the observed spectra, a 10 nm band-pass filter was inserted on the excitation and emission paths of the spectrophotometer. The drug-induced quenching of intrinsic Pgp fluorescence was corrected (Fcorrected) for factors such as dilution, background fluorescence, and inner filter effects using the equation mentioned below (Equation (2)).(2) Fcorrected=F−B10^εexbex+εembemQ/2 where Fcorrected = Drug-induced quenching of intrinsic Pgp fluorescence; F = Emitted intrinsic Pgp fluorescence at 330 nm; [Q] = Concentration of drug; εex and εem = Excitation and emission extinction coefficients, respectively; bex and bem = Path lengths of excitation (0.4 mm) and emission (10 mm) wavelengths, respectively; and B = Background fluorescence measured from drug and solvent.
The resulting quenching curves were fit using a modified Stern-Volmer equation (Equation (3)), as follows:(3) Fcorrected=FOcorrected/1+KsvQ+Funquenched where Fcorrected = The corrected fluorescence; F0(corrected) = Fluorescence recorded in the absence of drug; [Q] = Concentration of drug; Ksv = Stern–Volmer constant; and F(unquenched) = unquenched fluorescence.

SMILES	Decrease of digoxin-Pgp interaction for mutants compared to wild-type Pgp [1]	Effect on Pgp's ATPase hydrolytic activity relative to basal [2]	Vmax of CG-induced Pgp-mediated ATP hydrolysis [2]	Effect of erythromycin treatment on Pgp-mediated efflux rate (Pgp [3]; in words)	Intracellular accumulation in Pgp-overexpressing cells (Pgp [4])	Km [5] [µM]	Effect on Pgp's ATPase hydrolytic activity relative to basal ([2]; in words)	Vmax of CG-induced Pgp-mediated ATP hydrolysis ([2]; relative to the offset (basal activity), 37 °C, 3.2 mM ATP, 50 nM proteoliposome, modified Michaelis-Menten fit) [nmol/min/mg]	Kd [6] [µM]	Decrease of transport rate on treatment with erythromycin (Pgp [3])
C[C@H]1O[C@@H](O[C@H]2[C@@H](O)C[C@H](O[C@H]3[C@@H](O)C[C@H](O[C@H]4CC[C@@]5(C)[C@H](CC[C@@H]6[C@@H]5C[C@@H](O)[C@]5(C)[C@@H](C7=CC(=O)OC7)CC[C@]65O)C4)O[C@@H]3C)O[C@@H]2C)C[C@H](O)[C@@H]1O [Digoxin]	two- to four-fold	induced	277.53 ± 7.24 nmol min^−1 mg^−1 and 277.53 ± 7.24	did not affect	–	–	–	–	–	–
C[C@]12CC[C@H](O)C[C@H]1CC[C@@H]1[C@@H]2CC[C@]2(C)[C@@H](C3=CC(=O)OC3)CC[C@]12O [Digitoxigenin, (3β,5β)-3,14-Dihydroxy-card-20(22)-enolide]	–	–	–	–	no significant difference	67.6 ± 19.8	induced	216.02 ± 16.01	–	–
C[C@]12CC[C@H](O)C[C@H]1CC[C@@H]1[C@@H]2C[C@@H](O)[C@]2(C)[C@@H](C3=CC(=O)OC3)CC[C@]12O [Digoxigenin, 3β,12β,14-Trihydroxy-5β,20(22)-cardenolide]	–	–	–	–	–	–	induced	–	10.16 ± 0.01	about 43%
